In patent US9422293B2 (priority 2006, dated 2016) one finds IC50 data, which are given here for 20 compounds.

The structures appear in SMILES notation. Structures can show the parent of a compound that is named as a salt.

Sequence of rat TRPV1 (O35433 whole entry): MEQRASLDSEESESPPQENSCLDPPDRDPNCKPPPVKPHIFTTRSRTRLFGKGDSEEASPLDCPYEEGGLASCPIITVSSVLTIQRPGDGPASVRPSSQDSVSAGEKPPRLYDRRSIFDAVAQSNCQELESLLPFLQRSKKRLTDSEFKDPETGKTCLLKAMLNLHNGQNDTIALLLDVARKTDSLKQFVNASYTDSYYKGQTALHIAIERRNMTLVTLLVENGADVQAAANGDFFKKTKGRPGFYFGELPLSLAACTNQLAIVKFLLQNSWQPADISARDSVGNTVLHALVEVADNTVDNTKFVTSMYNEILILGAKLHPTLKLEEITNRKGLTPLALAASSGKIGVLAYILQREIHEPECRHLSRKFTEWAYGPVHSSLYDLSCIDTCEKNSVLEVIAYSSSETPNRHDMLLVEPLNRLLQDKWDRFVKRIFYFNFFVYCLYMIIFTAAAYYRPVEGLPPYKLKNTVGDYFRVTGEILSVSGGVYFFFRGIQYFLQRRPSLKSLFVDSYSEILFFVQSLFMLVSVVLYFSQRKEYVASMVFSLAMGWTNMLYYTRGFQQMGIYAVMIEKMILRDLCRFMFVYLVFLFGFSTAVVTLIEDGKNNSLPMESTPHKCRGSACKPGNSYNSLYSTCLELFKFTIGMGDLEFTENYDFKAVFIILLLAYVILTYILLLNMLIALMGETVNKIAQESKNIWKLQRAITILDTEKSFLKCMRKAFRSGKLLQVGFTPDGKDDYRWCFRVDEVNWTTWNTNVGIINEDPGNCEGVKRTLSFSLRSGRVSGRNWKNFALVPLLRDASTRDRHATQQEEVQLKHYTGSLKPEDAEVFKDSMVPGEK

The assay has as its target rat TRPV1 (Rattus norvegicus (Rat), UniProt O35433). The note with it: read-out: Rat IC50.
On to `COc1ccccc1CCNc1nc(C(C)C)nc2c1CCN(c1ncccc1C(F)(F)F)CC2` [Example 126, 2-(1-Methylethyl)-N-{2-[2-(methyloxy)phenyl]ethyl}-7-[3-(trifluoromethyl)pyridin-2-yl]-6,7,8,9-tetrahydro-5H-pyrimido[4,5-d]azepin-4-amine], for which the IC50 was determined as 1190 nM.
For `CC(C)c1nc2c(c(Nc3ccc(C(=O)N(C)C)cc3)n1)CCN(c1ncccc1C(F)(F)F)CC2` [Example 127, N,N-Dimethyl-4-({2-(1-methylethyl)-7-[3-(trifluoromethyl)pyridin-2-yl]-6,7,8,9-tetrahydro-5H-pyrimido[4,5-d]azepin-4-yl}amino)benzamide], the half-maximal inhibitory concentration (IC50) is 19200 nM.
As to `CC(C)c1nc2c(c(Nc3ccc(C(F)(F)F)c(Cl)c3)n1)CCN(c1ncccc1C(F)(F)F)CC2` [Example 128, N-[3-Chloro-4-(trifluoromethyl)phenyl]-2-(1-methylethyl)-7-[3-(trifluoromethyl)pyridin-2-yl]-6,7,8,9-tetrahydro-5H-pyrimido[4,5-d]azepin-4-amine], the concentration for half-maximal inhibition (IC50) is 150 nM.
Under `CC(C)c1nc2c(c(Nc3ccc(C(C)(C)C#N)cc3)n1)CCN(c1ncccc1C(F)(F)F)CC2` [Example 129, 2-Methyl-2-[4-({2-(1-methylethyl)-7-[3-(trifluoromethyl)pyridin-2-yl]-6,7,8,9-tetrahydro-5H-pyrimido[4,5-d]azepin-4-yl}amino)phenyl]propanenitrile] stands 230 nM.
Under `CC(C)c1nc2c(c(Nc3ccc([N+](=O)[O-])cc3)n1)CCN(c1ncccc1C(F)(F)F)CC2` [Example 136, 2-(1-Methylethyl)-N-(4-nitrophenyl)-7-[3-(trifluoromethyl)pyridin-2-yl]-6,7,8,9-tetrahydro-5H-pyrimido[4,5-d]azepin-4-amine] stands 110 nM; under `CC(C)c1ccc(Nc2nc(C(C)C)nc3c2CCN(c2ncccc2C(F)(F)F)CC3)cc1` [Example 137, 2-(1-Methylethyl)-N-[4-(1-methylethyl)phenyl]-7-[3-(trifluoromethyl)pyridin-2-yl]-6,7,8,9-tetrahydro-5H-pyrimido[4,5-d]azepin-4-amine], 60 nM.
To `CC(C)c1nc2c(c(Nc3ccc(C(F)(F)F)c(F)c3)n1)CCN(c1ncccc1C(F)(F)F)CC2` [Example 140, N-[3-Fluoro-4-(trifluoromethyl)phenyl]-2-(1-methylethyl)-7-[3-(trifluoromethyl)pyridin-2-yl]-6,7,8,9-tetrahydro-5H-pyrimido[4,5-d]azepin-4-amine] belongs 190 nM.
As for `CC(C)c1nc2c(c(Nc3ccc4c(c3)CCC4)n1)CCN(c1ncccc1C(F)(F)F)CC2` [Example 141, N-(2,3-Dihydro-1H-inden-5-yl)-2-(1-methylethyl)-7-[3-(trifluoromethyl)pyridin-2-yl]-6,7,8,9-tetrahydro-5H-pyrimido[4,5-d]azepin-4-amine hydrochloride salt], the 50% inhibitory concentration (IC50) was found to be 130 nM.
With `CC(C)c1nc2c(c(Nc3ccc(-c4cnco4)cc3)n1)CCN(c1ncccc1C(F)(F)F)CC2` [Example 142, 2-(1-Methylethyl)-N-[4-(1,3-oxazol-5-yl)phenyl]-7-[3-(trifluoromethyl)pyridin-2-yl]-6,7,8,9-tetrahydro-5H-pyrimido[4,5-d]azepin-4-amine], the half-inhibitory concentration (IC50) turned out to be 2090 nM.
To `CC(C)c1nc2c(c(Nc3ccc(C(C)(C)C)c([N+](=O)[O-])c3)n1)CCN(c1ncccc1C(F)(F)F)CC2` [Example 143, N-[4-(1,1-Dimethylethyl)-3-nitrophenyl]-2-(1-methylethyl)-7-[3-(trifluoromethyl)pyridin-2-yl]-6,7,8,9-tetrahydro-5H-pyrimido[4,5-d]azepin-4-amine] belongs 130 nM; to `FC(F)(F)c1ccc(Nc2nc(-c3ccco3)nc3c2CCN(c2ncccc2C(F)(F)F)CC3)cc1` [Example 144, 2-Furan-2-yl-N-[4-(trifluoromethyl)phenyl]-7-[3-(trifluoromethyl)pyridin-2-yl]-6,7,8,9-tetrahydro-5H-pyrimido[4,5-d]azepin-4-amine], 240 nM.
On to `CC(C)(C)c1ccc(Nc2nc(-c3ccco3)nc3c2CCN(c2ncccc2C(F)(F)F)CC3)cc1` [Example 145, N-[4-(1,1-Dimethylethyl)phenyl]-2-furan-2-yl-7-[3-(trifluoromethyl)pyridin-2-yl]-6,7,8,9-tetrahydro-5H-pyrimido[4,5-d]azepin-4-amine], for which the half-inhibitory concentration (IC50) came out at 240 nM.
For the compound `FC(F)(F)c1ccc(Nc2nc(-c3ccoc3)nc3c2CCN(c2ncccc2C(F)(F)F)CC3)cc1` [Example 146, 2-Furan-3-yl-N-[4-(trifluoromethyl)phenyl]-7-[3-(trifluoromethyl)pyridin-2-yl]-6,7,8,9-tetrahydro-5H-pyrimido[4,5-d]azepin-4-amine], the half-inhibitory concentration (IC50) was 720 nM.
On to `CC(C)(C)c1ccc(Nc2nc(-c3ccoc3)nc3c2CCN(c2ncccc2C(F)(F)F)CC3)cc1` [Example 147, N-[4-(1,1-Dimethylethyl)phenyl]-2-furan-3-yl-7-[3-(trifluoromethyl)pyridin-2-yl]-6,7,8,9-tetrahydro-5H-pyrimido[4,5-d]azepin-4-amine], for which the 50% inhibitory concentration (IC50) turned out to be 110 nM.
Turning to `CC(C)c1nc2c(c(Nc3ccc4nsnc4c3)n1)CCN(c1ncccc1C(F)(F)F)CC2` [Example 148, Benzo[1,2,5]thiadiazol-5-yl-[2-isopropyl-7-(3-trifluoromethyl-pyridin-yl)-6,7,8,9-tetrahydro-5H-pyrimido[4,5-d]azepin-4-yl]-amine], the half-inhibitory concentration (IC50) worked out at 2170 nM.
For `FC(F)(F)c1ccc(Nc2nc(-c3cccs3)nc3c2CCN(c2ncccc2C(F)(F)F)CC3)cc1` [Example 149, 2-(2-Thienyl)-N-[4-(trifluoromethyl)phenyl]-7-[3-(trifluoromethyl)pyridin-2-yl]-6,7,8,9-tetrahydro-5H-pyrimido[4,5-d]azepin-4-amine], the IC50 turned out to be 150 nM.
To `FC(F)(F)c1ccc(Nc2nc(-c3ccsc3)nc3c2CCN(c2ncccc2C(F)(F)F)CC3)cc1` [Example 150, 2-(3-Thienyl)-N-[4-(trifluoromethyl)phenyl]-7-[3-(trifluoromethyl)pyridin-2-yl]-6,7,8,9-tetrahydro-5H-pyrimido[4,5-d]azepin-4-amine] belongs 200 nM; to `Cc1ccc(Nc2nc(C(C)C)nc3c2CCN(c2ncccc2C(F)(F)F)CC3)cc1` [Example 151, 2-(1-Methylethyl)-N-(4-methylphenyl)-7-[3-(trifluoromethyl)pyridin-2-yl]-6,7,8,9-tetrahydro-5H-pyrimido[4,5-d]azepin-4-amine hydrochloride salt], 820 nM.
As for `CC(C)c1nc2c(c(Nc3ccc(S(=O)(=O)N4CCCC4)cc3)n1)CCN(c1ncccc1C(F)(F)F)CC2` [Example 152, 2-(1-Methylethyl)-N-[4-(pyrrolidin-1-ylsulfonyl)phenyl]-7-[3-(trifluoromethyl)pyridin-2-yl]-6,7,8,9-tetrahydro-5H-pyrimido[4,5-d]azepin-4-amine], the half-maximal inhibitory concentration (IC50) is 550 nM.
Under `CC(C)c1nc2c(c(Nc3ccc(S(=O)(=O)N(C)C)cc3)n1)CCN(c1ncccc1C(F)(F)F)CC2` [Example 154, N,N-Dimethyl-4-({2-(1-methylethyl)-7-[3-(trifluoromethyl)pyridin-2-yl]-6,7,8,9-tetrahydro-5H-pyrimido[4,5-d]azepin-4-yl}amino)benzenesulfonamide] stands 1140 nM.

By IC50 is commonly meant the point on the concentration scale where inhibition reaches its midpoint.
